# Test system: pancreatic patient-derived tumor xenografts (PDX models)
# Assay: In vivo antitumor activity in female BALB/c nude mice bearing patient-derived tumor xenografts (PDXs)
# Details: 60 mg/kg, Bid, po, 21 days, 3 days on 4 days off
# Excerpt: In Vivo Antitumor Activity of Compound 1 Hemihydrate in Female BALB/c Nude Mice Bearing Patient-Derived Tumor Xenografts (PDXs)
# Tumor fragments from seed mice inoculated with selected PDX tumors were harvested and used for inoculation into BALB/c nude mice. Each mouse was inoculated subcutaneously at the right flank with one tumor fragment (2-3 mm in diameter). The treatments were started when mean tumor size reached approximately 200-250 mm^3. For each model, 6 tumor bearing mice were randomized into 2 groups. Mice were dosed orally with either vehicle (0.5% w:v methyl cellulose) or Compound 1 hemihydrate Form A crystal (60 mg/kg, Bid, po, 21 days, 3 days on 4 days off).
# The % tumor growth inhibition (TGI) was taken as endpoints to determine when the tumor growth can be delayed or mice can be cured. Tumor sizes were measured twice weekly in two dimensions using a caliper, and the volume is expressed in mm^3 using the formula: V=0.5a×b^2,
# where a and b are the long and short diameters of the tumor, respectively. The % TGI was calculated using the following formula: % TGI=(1−(Ti-T0)/(Vi-V0))*100 […]
compound,measurement,setting,value
"Cc1n[nH]cc1-c1cc2nc([C@@H]3CC4CCN3CC4)[nH]c(=O)c2s1 [Compound 1 hemihydrate, 2-[(2S)-1-azabicyclo[2.2.2]oct-2-yl]-6-(3-methyl-1H-pyrazol-4-yl)thieno[3,2-d]pyrimidin-4(3H)-one]",tumor growth inhibition (% TGI),"22 out of 25 pancreatic PDX models, vs vehicle (0.5% methyl cellulose)",> 60%
same,"sensitivity of KRAS-mutant pancreatic tumors compared to KRAS-wild type ones (correlative study on % TGI, FIG. 1)","pancreatic PDX models, Student's t-test KRAS-mutant vs KRAS-wild",more sensitive

# From patent US11155879B2, “Method of predicting effects of CDC7 inhibitor” (TAKEDA PHARMACEUTICAL COMPANY LIMITED, priority 2017, dated 2021)
